Reference: patent US10189826B2, “Heterocyclic compounds and methods of use” (Medivation Technologies LLC, priority 2015, dated 2019)
Where two headings read alike, the source gives them in different places.

Assays:
[1] = system: SREBP-2 transcriptional activity (SREBP2 cleavage) in HepG2_LSSprom cells; assay: Luciferase reporter driven by a SREBP-2 specific promoter in HepG2_LSSprom cells; type: cell-based; conditions: 24 h, read-out: SREBP2 Cleavage (IC50 μM) 24 h
Summary of the method: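 HepG2_LSSprom cells dosed at 0.625-10 μM in serum-free medium for 6 h (or 24 h), then luciferase luminescence read. Signal normalized to vehicle (100%); IC50 by four-parameter nonlinear fit; five independent experiments, triplicate wells.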

[2] = Cytotoxicity assay (LDH release) in HepG2_LSSprom cells; type: cell-based; conditions: human, HepG2 LSSprom cells, 24 h treatment, LDH release
Summary of the method: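 HepG2_LSSprom cells exposed to compound at 0.625–10 μM in serum-free medium for 6 h or 24 h. Medium LDH measured colorimetrically at 490 nm; release expressed as % of lysis control after vehicle subtraction, negatives set to 0; five independent experiments, triplicate wells, mean±SEM.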

[3] = 24 h treatment, HepG2_LSSprom cells

CC(C)(C)c1cc(-c2cc(-c3ccc(C(=O)N4CCC(N)CC4)cc3Cl)cs2)ccn1 [Compound 72, 1-{4-[5-(2-tert-butylpyridin-4-yl)thiophen-3-yl]-3-chlorobenzoyl}piperidin-4-amine]
IC50 [1, 3]: > 10 µM
IC50 at 24 h [2]: > 10 µM

CC(C)(C)c1cc(-c2csc(-c3ccc(C(=O)N(CCC(=O)O)c4ccc(F)cc4)cc3Cl)c2)ccn1 [Compound 73, 3-(N-[4-[4-(2-tert-butyl-4-pyridyl)-2-thienyl]-3-chloro-benzoyl]-4-fluoro-anilino)propanoic acid]
IC50 [1]: > 3 µM
IC50 at 24 h [2]: > 10 µM

CC(C)(C)c1cc(-c2csc(-c3ccc(C(=O)N4CCC[C@@H](N)C4)cc3Cl)c2)ccn1 [Compound 74a, (R)-(3-aminopiperidin-1-yl)(4-(4-(2-(tert-butyl)pyridin-4-yl)thiophen-2-yl)-3-chlorophenyl)methanone]
IC50 [1, 3]: 0.74 µM
IC50 at 24 h [2]: > 10 µM

CC(C)(C)c1cc(-c2csc(-c3ccc(C(=O)N4CCC[C@H](N)C4)cc3Cl)c2)ccn1 [Compound 74b, (3S)-1-{4-[4-(2-tert-butylpyridin-4-yl)thiophen-2-yl]-3-chlorobenzoyl}piperidin-3-amine]
IC50 [1, 3]: 0.51 µM
IC50 at 24 h [2]: > 10 µM

CNC1CCCN(C(=O)c2ccc(-c3csc(-c4ccnc(C(C)(C)C)c4)c3)c(Cl)c2)C1 (centres unmarked) [Compound 75, 1-{4-[5-(2-tert-butylpyridin-4-yl)thiophen-3-yl]-3-chlorobenzoyl}-N-methylpiperidin-3-amine]
IC50 [1, 3]: 3.2 µM
IC50 at 24 h [2]: > 10 µM

CC(C)(C)C(=O)NC1CCN(C(=O)c2ccc(-c3csc(-c4ccnc(C(C)(C)C)c4)c3)c(Cl)c2)CC1 [Compound 76, N-(1-{4-[5-(2-tert-butylpyridin-4-yl)thiophen-3-yl]-3-chlorobenzoyl}piperidin-4-yl)-2,2-dimethylpropanamide]
IC50 [1, 3]: 1.6 µM
IC50 at 24 h [2]: > 10 µM

Cc1sc(-c2ccc(C(=O)N3CCNC(=O)C3)cc2Cl)cc1-c1ccnc(C(C)(C)C)c1 [Compound 77, 4-{4-[4-(2-tert-butylpyridin-4-yl)-5-methylthiophen-2-yl]-3-chlorobenzoyl}piperazin-2-one]
IC50 [1, 3]: 2.3 µM
IC50 at 24 h [2]: > 10 µM

CC(C)(C)OC(=O)N1CCC(NC(=O)c2ccc(-c3csc(-c4ccnc(C(C)(C)C)c4)c3)c(Cl)c2)CC1 [Compound 78, tert-butyl 4-{4-[5-(2-tert-butylpyridin-4-yl)thiophen-3-yl]-3-chlorobenzamido}piperidine-1-carboxylate]
IC50 [1, 3]: 0.2 µM
IC50 at 24 h [2]: > 10 µM

Cc1sc(-c2ccc(C(=O)N3CCC[C@@H](NC(=O)OC(C)(C)C)C3)cc2Cl)cc1-c1ccnc(C(C)(C)C)c1 [Compound 79a, tert-butyl N-[(3R)-1-{4-[4-(2-tert-butylpyridin-4-yl)-5-methylthiophen-2-yl]-3-chlorobenzoyl}piperidin-3-yl]carbamate]
IC50 [1, 3]: 0.29 µM
IC50 at 24 h [2]: > 10 µM

Cc1sc(-c2ccc(C(=O)N3CCC[C@H](NC(=O)OC(C)(C)C)C3)cc2Cl)cc1-c1ccnc(C(C)(C)C)c1 [Compound 79b, tert-butyl N-[(3S)-1-{4-[4-(2-tert-butylpyridin-4-yl)-5-methylthiophen-2-yl]-3-chlorobenzoyl}piperidin-3-yl]carbamate]
IC50 [1, 3]: 0.52 µM
IC50 at 24 h [2]: > 10 µM

CC(C)(C)c1cc(-c2cc(-c3ccc(C(=O)N4CCCC(NCc5ccc(Cl)cc5)C4)cc3Cl)cs2)ccn1 (centres unmarked) [Compound 80, 1-{4-[5-(2-tert-butylpyridin-4-yl)thiophen-3-yl]-3-chlorobenzoyl}-N-[(4-chlorophenyl)methyl]piperidin-3-amine]
IC50 [1, 3]: 0.06 µM
IC50 at 24 h [2]: > 10 µM

CC(C)(C)c1cc(-c2cc(-c3ccc(C(=O)N4CCC[C@@H](NCc5ccc(Cl)cc5)C4)cc3Cl)cs2)ccn1 [Compound 80a, (R)-(4-(5-(2-(tert-butyl)pyridin-4-yl)thiophen-3-yl)-3-chlorophenyl)(3-((4-chlorobenzyl)amino)piperidin-1-yl)methanone]
IC50 [1, 3]: 0.095 µM
IC50 at 24 h [2]: > 10 µM

CC(C)(C)c1cc(-c2cc(-c3ccc(C(=O)N4CCC[C@H](NCc5ccc(Cl)cc5)C4)cc3Cl)cs2)ccn1 [Compound 80b, (S)-(4-(5-(2-(tert-butyl)pyridin-4-yl)thiophen-3-yl)-3-chlorophenyl)(3-((4-chlorobenzyl)amino)piperidin-1-yl)methanone]
IC50 [1, 3]: 0.04 µM
IC50 at 24 h [2]: > 10 µM

CC(C)(C)c1cc(-c2cc(-c3ccc(C(=O)N4CCCC(NCc5cccc(Cl)c5)C4)cc3Cl)cs2)ccn1 (centres unmarked) [Compound 81, 1-{4-[5-(2-tert-butylpyridin-4-yl)thiophen-3-yl]-3-chlorobenzoyl}-N-[(3-chlorophenyl)methyl]piperidin-3-amine]
IC50 [1, 3]: 0.14 µM
IC50 at 24 h [2]: > 10 µM

CC(C)(C)c1cc(-c2cc(-c3ccc(C(=O)N4CCC(O)C4)cc3Cl)cs2)ccn1 (centres unmarked) [Compound 82, [4-[5-(2-tert-butyl-4-pyridyl)-3-thienyl]-3-chloro-phenyl]-(3-hydroxypyrrolidin-1-yl)methanone]
IC50 [1, 3]: 0.5 µM
IC50 at 24 h [2]: > 10 µM

CC(C)(C)c1cc(-c2cc(-c3ccc(C(=O)N4CCCC5(CCNC5=O)C4)cc3Cl)cs2)ccn1 (centres unmarked) [Compound 83, 7-{4-[5-(2-tert-butylpyridin-4-yl)thiophen-3-yl]-3-chlorobenzoyl}-2,7-diazaspiro[4.5]decan-1-one]
IC50 [1, 3]: 0.47 µM
IC50 at 24 h [2]: > 10 µM

CC(C)(C)c1cc(-c2cc(-c3ccc(C(=O)N4CCN5CCCC5C4)cc3Cl)cs2)ccn1 (centres unmarked) [Compound 84, 2-tert-butyl-4-[4-(2-chloro-4-{octahydropyrrolo[1,2-a]piperazine-2-carbonyl}phenyl)thiophen-2-yl]pyridine]
IC50 [1, 3]: > 3 µM
IC50 at 24 h [2]: > 10 µM

CC(C)(C)c1cc(-c2nc(-c3ccc(C(=O)N4CCCC(N)C4)cc3Cl)c[nH]2)ccn1 (centres unmarked) [Compound 85, 1-{4-[2-(2-tert-butylpyridin-4-yl)-1H-imidazol-4-yl]-3-chlorobenzoyl}piperidin-3-amine]
IC50 [1]: > 3 µM
IC50 at 24 h [2]: > 10 µM

CC(C)(C)c1cc(-c2csc(-c3ccc(C(=O)N4CCC(O)CC4)cc3Cl)c2)ccn1 [Compound 86, 1-{4-[4-(2-tert-butylpyridin-4-yl)thiophen-2-yl]-3-chlorobenzoyl}piperidin-4-ol]
IC50 [1, 3]: 0.06 µM
IC50 at 24 h [2]: > 10 µM

Cc1sc(-c2ccc(C(=O)N3CCC[C@H](N)C3)cc2Cl)cc1-c1ccnc(C(C)(C)C)c1 [Compound 87a, (3S)-1-{4-[4-(2-tert-butylpyridin-4-yl)-5-methylthiophen-2-yl]-3-chlorobenzoyl}piperidin-3-amine]
IC50 [1, 3]: > 10 µM
IC50 at 24 h [2]: > 10 µM

Cc1sc(-c2ccc(C(=O)N3CCC[C@@H](N)C3)cc2Cl)cc1-c1ccnc(C(C)(C)C)c1 [Compound 87b, (3R)-1-{4-[4-(2-tert-butylpyridin-4-yl)-5-methylthiophen-2-yl]-3-chlorobenzoyl}piperidin-3-amine]
IC50 [1, 3]: > 10 µM
IC50 at 24 h [2]: > 10 µM

CC(C)(C)c1cc(-c2csc(-c3ccc(C(=O)N4CCC(C(=O)O)CC4)cc3Cl)c2)ccn1 [Compound 88, 1-{4-[4-(2-tert-butylpyridin-4-yl)thiophen-2-yl]-3-chlorobenzoyl}piperidine-4-carboxylic acid]
IC50 [1, 3]: 2.8 µM
IC50 at 24 h [2]: > 10 µM

CC(C)(C)c1cc(-c2csc(-c3ccc(C(=O)N4CCCC(O)C4)cc3Cl)c2)ccn1 (centres unmarked) [Compound 89, 1-{4-[4-(2-tert-butylpyridin-4-yl)thiophen-2-yl]-3-chlorobenzoyl}piperidin-3-ol]
IC50 [1, 3]: 0.037 µM
IC50 at 24 h [2]: > 10 µM

CC(C)(C)c1cc(-c2csc(-c3ccc(C(=O)N4CCC[C@@H](O)C4)cc3Cl)c2)ccn1 [Compound 89a, (R)-(4-(4-(2-(tert-butyl)pyridin-4-yl)thiophen-2-yl)-3-chlorophenyl)(3-hydroxypiperidin-1-yl)methanone]
IC50 [1, 3]: 0.03 µM
IC50 at 24 h [2]: > 10 µM

CC(C)(C)c1cc(-c2csc(-c3ccc(C(=O)N4CCC[C@H](O)C4)cc3Cl)c2)ccn1 [Compound 89b, (S)-(4-(4-(2-(tert-butyl)pyridin-4-yl)thiophen-2-yl)-3-chlorophenyl)(3-hydroxypiperidin-1-yl)methanone]
IC50 [1, 3]: 0.02 µM
IC50 at 24 h [2]: > 10 µM

CC(C)(C)OC(=O)NC1CCN(C(=O)c2ccc(-c3csc(-c4ccnc(C(C)(C)C)c4)c3)c(Cl)c2)C1 (centres unmarked) [Compound 90]
IC50 [1, 3]: 0.37 µM
IC50 at 24 h [2]: > 10 µM

CC(C)(C)c1cc(-c2csc(-c3ccc(C(=O)N4CCCC(C(=O)O)C4)cc3Cl)c2)ccn1 (centres unmarked) [Compound 91]
IC50 [1, 3]: 0.72 µM
IC50 at 24 h [2]: > 10 µM

CC(C)(C)c1cc(-c2csc(-c3ccc(C(=O)N4CCc5nc[nH]c5C4)cc3Cl)c2)ccn1 [Compound 92, 2-tert-butyl-4-[5-(2-chloro-4-{3H,4H,5H,6H,7H-imidazo[4,5-c]pyridine-5-carbonyl}phenyl)thiophen-3-yl]pyridine]
IC50 [1, 3]: 0.74 µM
IC50 at 24 h [2]: > 10 µM

CC(C)(C)c1cc(-c2csc(-c3ccc(C(=O)N4CCNC(=O)C4)cc3Cl)c2)ccn1 [Compound 93, 4-{4-[4-(2-tert-butylpyridin-4-yl)thiophen-2-yl]-3-chlorobenzoyl}piperazin-2-one]
IC50 [1, 3]: 0.41 µM
IC50 at 24 h [2]: > 10 µM

CC(C)(C)c1cc(-c2csc(-c3ccc(C(=O)N4CCCC(N5CCNC5=O)C4)cc3Cl)c2)ccn1 (centres unmarked) [Compound 94, 1-[1-{4-[4-(2-tert-butylpyridin-4-yl)thiophen-2-yl]-3-chlorobenzoyl}piperidin-3-yl]imidazolidin-2-one]
IC50 [1, 3]: 0.52 µM
IC50 at 24 h [2]: > 10 µM

CC1(N)CCCN(C(=O)c2ccc(-c3cc(-c4ccnc(C(C)(C)C)c4)cs3)c(Cl)c2)C1 (centres unmarked) [Compound 95, 1-{4-[4-(2-tert-butylpyridin-4-yl)thiophen-2-yl]-3-chlorobenzoyl}-3-methylpiperidin-3-amine]
IC50 [1, 3]: 0.42 µM
IC50 at 24 h [2]: > 10 µM
